From BindingDB's records for doi:10.1074/jbc.M113.534859 (Karlsruhe Institute of Technology, 2014)

The substances below were run against T1, Androgen receptor [646-919] (Human, UniProt P10275) (assay: Fluorescence Polarization Assay). Conditions: pH 6.5.
T1 construct: 646-919
T1 sequence (P10275 whole entry): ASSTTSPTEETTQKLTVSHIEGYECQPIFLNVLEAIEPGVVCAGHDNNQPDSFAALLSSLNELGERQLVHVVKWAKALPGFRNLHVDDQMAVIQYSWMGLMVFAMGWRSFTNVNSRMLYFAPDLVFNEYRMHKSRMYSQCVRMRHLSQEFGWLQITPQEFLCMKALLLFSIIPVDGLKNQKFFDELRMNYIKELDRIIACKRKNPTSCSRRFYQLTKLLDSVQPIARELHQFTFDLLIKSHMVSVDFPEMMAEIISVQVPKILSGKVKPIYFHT
Description: For the fluorescence polarization experiments, 5 nM fluorescently labeled Bag-1L (Bag-1L(1-20), fluorescein isothiocyanate (FITC)-[…]; Bag-1L(61-80), FITC-[…]) or SRC-2 peptide (FITC-[…]) was incubated with serially diluted AR-LBD (4 to 0.4 μM) in binding buffer (50 mM NaPO4, pH 6.5, 50 mM KCl, 1 mM DTT) and 10 μM DHT. The samples were then equilibrated for 45 min at ambient temperature. For the competition experiments, 400 to 0.4 nM Bag-1L core (GARRPR) or SRC-2 peptides ([…]) were incubated with 4 μM AR-LBD and 5 nM fluorescent Bag-1 or SRC-2 peptide. Binding was measured using polarization (excitation λ = 485 nm, emission λ = 530 nm) on a Synergy H1 hybrid reader (Biotek).

Kd	Substance
3.3 µM	H-RGAAAGARRPRMKKKTRRRS-OH [Bag-1L (61-80)]
2 µM	H-MAQRGGARRPRGDRERLGSR-OH [Bag-1L (1-20)]
2.8 µM	H-HDSKGQTKLLQLLTTKSDQM-OH
